According to US20050227999A1, “Diarylamine derivatives as calcium channel blockers” (NeuroMed Technologies Inc., priority 2004, published 2005):
Read-outs that look alike come from different tables or passages of the source.

What was measured:
[1] = biological target: T1, rat brain N-type calcium channel subunits (α1B+α2δ+β1b cDNA subunits) (Rattus norvegicus, UniProt Q02294); experiment: N-type calcium channel block, whole cell patch clamp in transfected HEK 293 cells; format: cell-based; conditions: holding potential −80 mV to +10 mV
T1 construct: expressed in transfected cells; host or cells: HEK 293
Method: N-type calcium channel blocking activity was assayed in human embryonic kidney cells, HEK 293, stably transfected with the rat brain N-type calcium channel subunits (α1B+α2δ+β1b cDNA subunits). Alternatively, N-type calcium channels (α1B+α2δ+β1b cDNA subunits), L-type channels (α1C+δ+β1b cDNA subunits) and P/Q-type channels (α1A+α2δ+β1b cDNA subunits) were transiently expressed in HEK 293 cells. Briefly, cells were cultured in Dulbecco's modified eagle medium (DMEM) supplemented with 10% fetal bovine serum, 200 U/ml penicillin and 0.2 mg/ml streptomycin at 37° C. with 5% CO2. At 85% confluency cells were split with 0.25% trypsin/l mM EDTA and plated at 10% confluency on glass coverslips. At 12 hours the medium was replaced and the cells transiently transfected using a standard calcium phosphate protocol and the appropriate calcium channel cDNA's. Fresh DMEM was supplied and the cells transferred to 28° C./5% CO2. Cells were incubated for 1 to 2 days before cell recording.
Whole cell patch clamp experiments were performed using an Axopatch 200B amplifier (Axon Instruments, Burlingame, Calif.) linked to a personal computer equipped with PCLAMP software. The external and internal recording solutions contained, respectively, 5 mM BaCl2, 10 mM MgCl2, 10 mM HEPES, 40 mM TEACl, 10 mM glucose, 87.5 mM CsCl (pH 7.2) and 108 mM CsMS, 4 mM MgCl2, 9 mM EGTA, 9 mM HEPES (pH 7.2). Currents were typically elicited from a holding potential of −80 mV to +10 mV using Clampex software (Axon Instruments). Typically, currents were first elicited with low frequency stimulation (0.067 Hz) and allowed to stabilize prior to application of the compounds. The compounds were then applied during the low frequency pulse trains for two to three minutes to assess tonic block, and subsequently the pulse frequency was increased to 0.2 Hz to assess frequency dependent block. Data were analyzed using Clampfit (Axon Instruments) and SigmaPlot 4.0 (Jandel Scientific). […]

[2] = biological target: T2, human α1G T-type channels (Homo sapiens, UniProt O43497); experiment: T-type calcium channel block, patch clamp in HEK cell lines; format: cell-based
T2 construct: expressed in transfected cells
Method: Standard patch-clamp techniques were employed to identify blockers of T-type currents. Briefly, previously described HEK cell lines stably expressing human α1G T-type channels were used for all the recordings (passage #: 4-20, 37° C., 5% CO2). To obtain T-type currents, plastic dishes containing semi-confluent cells were positioned on the stage of a ZEISS AXIOVERT S100 microscope after replacing the culture medium with external solution (see below). Whole-cell patches were obtained using pipettes (borosilicate glass with filament, O.D.: 1.5 mm, I.D.: 0.86 mm, 10 cm length), fabricated on a SUTTER P-97 puller with resistance values of ˜5 MΩ (see below for internal solution).
In the non-inactivating protocol, the holding potential is set at −110 mV and with a pre-pulse at −100 mV for 1 second prior to the test pulse at 40 mV for 50 ms. […]
Test compounds were dissolved in external solution, 0.1-0.01% DMSO. After ˜10 min rest, they were applied by gravity close to the cell using a WPI microfil tubing. The “non-inactivated” pre-pulse was used to examine the resting block of a compound. The “inactivated” protocol was employed to study voltage-dependent block. However, the initial data shown below were mainly obtained using the non-inactivated protocol only. IC50 values are shown for various compounds of the invention in Table 4.

rat formalin model = experiment: Formalin-induced pain model; format: in vivo; conditions: 30 mg/kg IP, 10 minutes prior to formalin, saline control=100%
Method: The effects of intrathecally delivered compounds of the invention on the rat formalin model were measured. The compounds were reconstituted to stock solutions of approximately 10 mg/ml in propylene glycol. Eight Holtzman male rats of 275-375 g size were randomly selected per test article.
The following study groups were used, with test article, vehicle control (propylene glycol) and saline delivered intraperitoneally (IP):
Prior to initiation of drug delivery baseline behavioral and testing data were taken.
On the morning of testing, a small metal band (0.5 g) was loosely placed around the right hind paw. The rat was placed in a cylindrical Plexiglas chamber for adaptation a minimum of 30 minutes. Test Article or Vehicle Control Article was administered 10 minutes prior to formalin injection (50 μl of 5% formalin) into the dorsal surface of the right hindpaw of the rat. The animal was then placed into the chamber of the automated formalin apparatus where movement of the formalin injected paw was monitored and the number of paw flinches tallied by minute over the next 60 minutes (Malmberg, A. B., et al., Anesthesiology (1993) 79:270-281).
Results are presented as Maximum Possible Effect±SEM, where saline control=100%.

[3] = system: spinal nerve ligation (SNL) injury; experiment: Spinal nerve ligation (SNL) model of neuropathic pain, thermal hyperalgesia; format: in vivo; conditions: rat SNL, 30 mg/kg orally in propylene glycol
Text: Spinal nerve ligation (SNL) injury was induced using the procedure of Kim and Chung, (Kim and Chung 1992) in male Sprague-Dawley rats (Harlan; Indianapolis, Ind.) weighing 200 to 300 grams. Anesthesia was induced with 2% halothane in O2 at 2 L/min and maintained with 0.5% halothane in O2. After surgical preparation of the rats and exposure of the dorsal vertebral column from L4 to S2, the L5 and L6 spinal nerves were tightly ligated distal to the dorsal root ganglion using 4-0 silk suture. The incision was closed, and the animals were allowed to recover for 5 days. […] Sham control rats underwent the same operation and handling as the experimental animals, but without SNL.
The method of Hargreaves and colleagues (Hargreaves, et al., 1988) was employed to access paw-withdrawal latency to a thermal nociceptive stimulus. Rats were allowed to acclimate within a plexiglas enclosure on a clear glass plate maintained at 30° C. A radiant heat source (i.e., high intensity projector lamp) was activated with a timer and focused onto the plantar surface of the affected paw of nerve-injured or carrageenan-injected rats. Paw-withdrawal latency was determined by a photocell that halted both lamp and timer when the paw was withdrawn. The latency to withdrawal of the paw from the radiant heat source was determined prior to carrageenan or […], 3 hours after carrageenan or 7 days after L5/L6 SNL but before drug and after drug ministration. A maximal cut-off of 40 seconds was Employed to prevent tissue damage. Paw withdrawal latencies were thus determined to the Nearest 0.1 second. Reversal of thermal hyperalgesia was indicated by a return of the paw Withdrawal latencies to the pre-treatment baseline latencies (i.e., 21 seconds). Anti nociception Was indicated by a significant (p <0.05) increase in paw withdrawal latency above this baseline. Data were converted to % anti hyperalgesia by the formula: (100qx (test latency−baseline latency)/(cut-off−baseline latency) where cut-off was 21 seconds for determining anti hyperalgesia.
Compound 7 was administered orally in propylene glycol solution at a dose of 30 mg/kg. The percent activity was calculated for thermal hyperalgesia.

[4] = system: T-type over L-type channels; conditions: cited from earlier work

T1 sequence (Q02294 whole entry): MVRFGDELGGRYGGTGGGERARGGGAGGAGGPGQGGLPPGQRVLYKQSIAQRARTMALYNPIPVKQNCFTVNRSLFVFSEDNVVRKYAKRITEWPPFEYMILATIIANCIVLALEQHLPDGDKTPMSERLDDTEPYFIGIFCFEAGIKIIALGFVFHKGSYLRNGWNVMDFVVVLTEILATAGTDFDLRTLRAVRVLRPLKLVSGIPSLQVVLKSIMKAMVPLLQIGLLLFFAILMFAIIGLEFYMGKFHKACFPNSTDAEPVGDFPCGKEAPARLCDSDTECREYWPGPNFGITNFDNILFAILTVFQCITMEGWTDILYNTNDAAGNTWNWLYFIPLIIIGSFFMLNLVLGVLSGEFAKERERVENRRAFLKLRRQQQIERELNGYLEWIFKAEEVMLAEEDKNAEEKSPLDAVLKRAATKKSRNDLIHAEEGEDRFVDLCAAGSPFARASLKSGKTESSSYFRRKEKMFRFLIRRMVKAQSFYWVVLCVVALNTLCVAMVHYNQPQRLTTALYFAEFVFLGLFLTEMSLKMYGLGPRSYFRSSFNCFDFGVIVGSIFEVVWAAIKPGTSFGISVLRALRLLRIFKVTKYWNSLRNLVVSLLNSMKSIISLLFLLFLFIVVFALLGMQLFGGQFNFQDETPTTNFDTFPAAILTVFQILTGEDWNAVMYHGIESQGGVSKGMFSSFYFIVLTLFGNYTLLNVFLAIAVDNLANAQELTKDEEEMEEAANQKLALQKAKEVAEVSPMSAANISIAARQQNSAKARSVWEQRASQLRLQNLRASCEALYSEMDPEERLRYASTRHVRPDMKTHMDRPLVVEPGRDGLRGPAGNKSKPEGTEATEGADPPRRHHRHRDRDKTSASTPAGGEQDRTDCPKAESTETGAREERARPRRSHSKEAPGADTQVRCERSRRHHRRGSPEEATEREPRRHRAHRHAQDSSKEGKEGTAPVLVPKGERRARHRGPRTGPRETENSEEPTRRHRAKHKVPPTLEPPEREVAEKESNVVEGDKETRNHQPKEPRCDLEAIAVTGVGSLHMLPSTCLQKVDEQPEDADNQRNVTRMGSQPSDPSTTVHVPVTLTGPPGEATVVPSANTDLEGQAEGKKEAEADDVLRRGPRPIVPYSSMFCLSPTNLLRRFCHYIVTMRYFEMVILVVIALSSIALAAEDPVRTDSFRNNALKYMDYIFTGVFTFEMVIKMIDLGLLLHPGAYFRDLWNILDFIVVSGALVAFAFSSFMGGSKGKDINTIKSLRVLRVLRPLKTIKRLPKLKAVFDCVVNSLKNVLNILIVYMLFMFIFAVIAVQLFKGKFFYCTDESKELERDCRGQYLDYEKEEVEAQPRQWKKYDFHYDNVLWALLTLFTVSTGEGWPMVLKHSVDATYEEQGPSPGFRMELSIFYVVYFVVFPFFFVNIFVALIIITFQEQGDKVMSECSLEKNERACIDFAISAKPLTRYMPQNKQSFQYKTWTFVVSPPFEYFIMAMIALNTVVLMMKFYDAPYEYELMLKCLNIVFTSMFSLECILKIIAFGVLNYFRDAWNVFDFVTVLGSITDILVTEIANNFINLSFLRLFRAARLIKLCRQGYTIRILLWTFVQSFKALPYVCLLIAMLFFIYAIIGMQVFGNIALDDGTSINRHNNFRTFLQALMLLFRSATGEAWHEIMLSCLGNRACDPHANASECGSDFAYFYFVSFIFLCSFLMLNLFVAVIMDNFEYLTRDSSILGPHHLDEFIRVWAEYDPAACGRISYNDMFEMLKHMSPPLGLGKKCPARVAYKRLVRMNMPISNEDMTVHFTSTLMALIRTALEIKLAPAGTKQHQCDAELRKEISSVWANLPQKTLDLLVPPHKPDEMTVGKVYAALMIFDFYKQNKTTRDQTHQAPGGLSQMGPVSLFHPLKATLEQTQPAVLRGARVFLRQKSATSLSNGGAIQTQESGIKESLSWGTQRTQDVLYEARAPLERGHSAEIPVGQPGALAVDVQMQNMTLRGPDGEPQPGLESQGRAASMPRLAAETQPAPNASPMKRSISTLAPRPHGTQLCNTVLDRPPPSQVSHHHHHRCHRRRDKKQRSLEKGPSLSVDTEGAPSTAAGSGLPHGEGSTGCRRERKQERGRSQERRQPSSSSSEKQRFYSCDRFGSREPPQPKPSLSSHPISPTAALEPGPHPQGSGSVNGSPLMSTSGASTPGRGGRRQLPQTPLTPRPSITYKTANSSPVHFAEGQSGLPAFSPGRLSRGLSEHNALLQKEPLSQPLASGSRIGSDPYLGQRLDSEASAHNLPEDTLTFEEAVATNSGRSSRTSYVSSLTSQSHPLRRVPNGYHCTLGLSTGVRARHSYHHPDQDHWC
T1 sequence (P54290 25-944 partner limits assumed): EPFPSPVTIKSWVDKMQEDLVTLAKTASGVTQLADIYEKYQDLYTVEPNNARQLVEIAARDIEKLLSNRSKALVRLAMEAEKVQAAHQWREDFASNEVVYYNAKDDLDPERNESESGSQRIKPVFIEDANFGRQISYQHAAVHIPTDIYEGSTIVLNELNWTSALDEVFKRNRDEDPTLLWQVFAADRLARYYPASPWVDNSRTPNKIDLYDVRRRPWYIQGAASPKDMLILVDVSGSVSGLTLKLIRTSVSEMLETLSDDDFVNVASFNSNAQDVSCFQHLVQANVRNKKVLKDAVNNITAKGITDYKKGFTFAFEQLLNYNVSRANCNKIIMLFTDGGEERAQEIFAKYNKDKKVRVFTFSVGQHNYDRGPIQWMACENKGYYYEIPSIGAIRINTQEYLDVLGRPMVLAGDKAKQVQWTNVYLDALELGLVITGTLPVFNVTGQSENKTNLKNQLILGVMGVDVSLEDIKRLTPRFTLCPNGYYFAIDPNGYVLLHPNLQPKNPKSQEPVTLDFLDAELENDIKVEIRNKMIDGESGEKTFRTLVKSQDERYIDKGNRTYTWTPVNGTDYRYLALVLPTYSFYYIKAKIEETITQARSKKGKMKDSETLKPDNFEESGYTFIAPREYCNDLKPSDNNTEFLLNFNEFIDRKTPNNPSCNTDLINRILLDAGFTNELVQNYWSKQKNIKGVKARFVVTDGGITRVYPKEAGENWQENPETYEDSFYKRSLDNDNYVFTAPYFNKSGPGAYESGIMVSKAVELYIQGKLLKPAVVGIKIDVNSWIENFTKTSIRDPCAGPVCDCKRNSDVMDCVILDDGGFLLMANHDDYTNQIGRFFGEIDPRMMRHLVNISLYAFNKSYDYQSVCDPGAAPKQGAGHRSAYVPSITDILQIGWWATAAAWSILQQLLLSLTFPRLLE
T1 sequence (P54290 945-1091 partner limits assumed): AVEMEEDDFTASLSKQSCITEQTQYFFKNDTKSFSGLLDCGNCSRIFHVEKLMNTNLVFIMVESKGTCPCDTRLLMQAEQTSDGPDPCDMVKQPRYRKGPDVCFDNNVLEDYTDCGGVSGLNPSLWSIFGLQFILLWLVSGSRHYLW
T1 sequence (P54283 whole entry partner): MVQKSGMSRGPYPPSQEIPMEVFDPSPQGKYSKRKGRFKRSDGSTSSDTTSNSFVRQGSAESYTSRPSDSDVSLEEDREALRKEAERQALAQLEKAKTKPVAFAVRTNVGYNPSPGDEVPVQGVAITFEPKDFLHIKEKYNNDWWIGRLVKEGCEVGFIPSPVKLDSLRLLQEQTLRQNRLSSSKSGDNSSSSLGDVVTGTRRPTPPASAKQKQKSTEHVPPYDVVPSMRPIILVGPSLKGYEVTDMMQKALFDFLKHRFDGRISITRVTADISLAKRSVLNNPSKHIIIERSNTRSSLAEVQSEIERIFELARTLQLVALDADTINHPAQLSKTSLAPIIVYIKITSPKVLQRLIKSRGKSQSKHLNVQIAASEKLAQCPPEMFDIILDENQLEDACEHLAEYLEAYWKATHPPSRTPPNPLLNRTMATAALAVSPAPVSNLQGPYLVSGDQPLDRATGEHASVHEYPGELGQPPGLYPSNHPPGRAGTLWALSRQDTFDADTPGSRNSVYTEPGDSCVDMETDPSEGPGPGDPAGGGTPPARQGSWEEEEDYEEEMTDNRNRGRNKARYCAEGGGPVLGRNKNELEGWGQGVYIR

| Compound | IC50 ([1]; low frequency stimulation 0.067 Hz (tonic block), read-out: IC50 @ 0.067 Hz) [nM] | IC50 ([1]; pulse frequency 0.2 Hz (frequency dependent block), read-out: IC50 @ 0.2 Hz) [nM] | IC50 ([2]; −80 mV (inactivation protocol, voltage-dependent block), read-out: IC50 - 80 mV) [nM] | IC50 ([2]; −100 mV pre-pulse (non-inactivating protocol, resting block), read-out: IC50 - 100 mV) [nM] | Maximum Possible Effect±SEM, Phase II Total (rat formalin model) [%] | Maximum Possible Effect±SEM, Phase IIB (rat formalin model) [%] | Thermal Hyperalgesia (% Activity) ([3]; 30 min) [%] | Thermal Hyperalgesia (% Activity) ([3]; 60 min) [%] | Thermal Hyperalgesia (% Activity) ([3]; 90 min) [%] | Thermal Hyperalgesia (% Activity) ([3]; 120 min) [%] | selective for T-type over L-type channels [4] |
| --- | --- | --- | --- | --- | --- | --- | --- | --- | --- | --- | --- |
| O=C(CN(c1ccccc1)c1ccccc1)N1CCN(C(c2ccccc2)c2cccc(Cl)c2Cl)CC1 (centres unmarked) [Compound 7, 1-{4-[(2,3-Dichloro-phenyl)-phenyl-methyl]-piperazin-1-yl}-2-diphenylamino-ethanone] | 180 | 140 | 1000 | 1000 | 63 ± 10 | 64 ± 11 | 38.45 ± 18.52 | 78.54 ± 10.74 | 40.21 ± 17.08 | 20.98 ± 10.36 |  |
| COCC(=O)O[C@]1(CCN(C)CCCc2nc3ccccc3[nH]2)CCc2cc(F)ccc2[C@@H]1C(C)C [Mibefradil] |  |  |  |  |  |  |  |  |  |  | 10-30 fold |
